≈ marks a conversion by molar mass, not a printed value. Read-outs that look alike come from different tables or passages of the source.
Assays:
Assay type in all cases: cell-based
Proteus rettgeri NIH 96 = test: Minimum inhibitory concentration, serial dilution method on agar plate; conditions: Providencia rettgeri
[1] = tested on: Escherichia Coli NIHJ JC-2 (IFO 12734); test: as above; conditions: read-out: Minimum Inhibitory Concentration
Pseudomonas putida 12996 = test: as above; conditions: read-out: Minimum Inhibitory Concentration
[2] = tested on: Staphylococcus aureus B-5; test: as above
Bacillus anthracis = test: microbe, parasite or virus in culture
[3] = tested on: Staphylococcus aureus ATCC 12692; test: Minimum inhibitory concentration, serial dilution method on agar plate
[4] = tested on: Serratia marcescens IFO 12648; test: as above; conditions: read-out: Minimum Inhibitory Concentration
[5] = tested on: Streptococcus pyogenes IID S-23; test: as above; conditions: Streptococcus pyogenes, read-out: Minimum Inhibitory Concentration
[6] = tested on: Staphylococcus aureus 50774; test: as above
[7] = tested on: Micrococcus luteus ATCC 4698; test: as above
[8] = tested on: Staphylococcus aureus IFO 3060; test: as above
[9] = tested on: Staphylococcus aureus Newmann; test: as above
[10] = tested on: Corynebacterium diphteriae; test: as above
[11] = tested on: Staphylococcus epidermidis ATCC 12228; test: as above
Bacillus cereus IFO 3001 = test: as above
Klebsiella pneumoniae = test: as above; conditions: read-out: Minimum Inhibitory Concentration
[12] = tested on: Pseudomonas aeruginosa E-2; test: as above; conditions: Pseudomonas aeruginosa, read-out: Minimum Inhibitory Concentration
[13] = tested on: Staphylococcus aureus B-70; test: as above
[14] = tested on: Bacillus cereus ATCC 11778; test: as above
[15] = tested on: Staphylococcus epidermidis IFO 3762; test: as above
[16] = tested on: Pseudomonas aeruginosa ATCC 10145; test: as above; conditions: Pseudomonas aeruginosa, read-out: Minimum Inhibitory Concentration
[17] = tested on: Bacillus pumilus IFO 3813; test: as above
[18] = tested on: Peptococcus asaccharolyticus WAL 3218; test: as above; conditions: Peptoniphilus asaccharolyticus
[19] = tested on: Bacillus subtilis PCI 219; test: as above
Shigella sonnei EW 33 = test: as above
Method: The antimicrobial activity of the following test compounds on various test organisms listed below was determined by the serial dilution method on agar plate (Heart Infusion agar produced by Difco Co.) (see CHEMOTHERAPY 22, pp. 1126-1128 (1974)), and the minimum inhibitory concentrations (mcg/ml) obtained are shown in Tables 1, 2 and 3 below.
A sample of each test organism was prepared so that the population of the organism was 1×10^8 cells/ml (O.D. 660 mμ=0.07 to 0.16) and 1×10^6 cells/ml (which was obtained by diluting 100 fold the above 1×10^8 cells/ml preparation).

Sarcina lutea PCI 1001 = test: as above
[20] = tested on: Staphylococcus aureus FDA 209 P; test: as above; conditions: Staphylococcus aureus, read-out: Minimum Inhibitory Concentration
[21] = tested on: Staphylococcus aureus 90124; test: as above
[22] = tested on: Bacillus circuluns ATCC 8241; test: as above
[23] = tested on: Staphylococcus aureus No. 286; test: as above
[24] = tested on: Staphylococcus aureus No. 80; test: as above
[25] = tested on: Staphylococcus aureus 7447; test: as above

CC1CCc2c(N3CCC(O)CC3)c(F)cc3c(=O)c(C(=O)O)cn1c23 (stereo not shown) [Compound 1, 9-Fluoro-8-(4-hydroxy-1-piperidyl)-5-methyl-6,7-dihydro-1-oxo-1H,5H-benzo[ij]quinolizine-2-carboxylic acid]
MIC (Proteus rettgeri NIH 96; NIH96, read-out: Minimum Inhibitory Concentration, 1×10^6 cells/ml): 0.1 µg/mL (≈ 0.277 µM) | MIC (Proteus rettgeri NIH 96; NIH96, read-out: Minimum Inhibitory Concentration, 1×10^8 cells/ml): 0.2 µg/mL (≈ 0.555 µM) | MIC ([1]; 1×10^6 cells/ml): 0.39 µg/mL (≈ 1.08 µM) | MIC ([1]; 1×10^8 cells/ml): 0.39 µg/mL (≈ 1.08 µM) | MIC (Pseudomonas putida 12996; Pseudomonas putida, 12996, 1×10^6 cells/ml): 6.25 µg/mL (≈ 17.3 µM) | MIC (Pseudomonas putida 12996; Pseudomonas putida, 12996, 1×10^8 cells/ml): 6.25 µg/mL (≈ 17.3 µM) | Minimum Inhibitory Concentration ([2]; 1×10^6 cells/ml): 0.024 µg/mL | MIC ([2]; Staphylococcus aureus, B5, 1×10^8 cells/ml): 0.024 µg/mL (≈ 0.0666 µM) | Minimum Inhibitory Concentration (Bacillus anthracis; 1×10^6 cells/ml): 0.05 µg/mL | MIC (Bacillus anthracis; Bacillus anthracis, read-out: Minimum Inhibitory Concentration): 0.05 µg/mL (≈ 0.139 µM) | Minimum Inhibitory Concentration ([3]; 1×10^6 cells/ml): 0.05 µg/mL | MIC ([3]; Staphylococcus aureus, ATCC12692, 1×10^8 cells/ml): 0.05 µg/mL (≈ 0.139 µM) | MIC ([4]; IFO12648, 1×10^6 cells/ml): 0.78 µg/mL (≈ 2.16 µM) | MIC ([4]; IFO12648, 1×10^8 cells/ml): 1.56 µg/mL (≈ 4.33 µM) | MIC ([5]; IIDS23, 1×10^6 cells/ml): 0.39 µg/mL (≈ 1.08 µM) | MIC ([5]; IIDS23, 1×10^8 cells/ml): 0.78 µg/mL (≈ 2.16 µM) | Minimum Inhibitory Concentration ([6]; 1×10^6 cells/ml): 0.05 µg/mL | MIC ([6]; Staphylococcus aureus, 50774, 1×10^8 cells/ml): 0.05 µg/mL (≈ 0.139 µM) | MIC ([7]; ATCC4698, 1×10^6 cells/ml): 0.1 µg/mL (≈ 0.277 µM) | MIC ([7]; ATCC4698, 1×10^8 cells/ml): 0.2 µg/mL (≈ 0.555 µM) | MIC ([8]; IFO3060, 1×10^6 cells/ml): 0.05 µg/mL (≈ 0.139 µM) | MIC ([8]; IFO3060, 1×10^8 cells/ml): 0.1 µg/mL (≈ 0.277 µM) | MIC ([9]; 1×10^6 cells/ml): 0.024 µg/mL (≈ 0.0666 µM) | MIC ([9]; 1×10^8 cells/ml): 0.05 µg/mL (≈ 0.139 µM) | Minimum Inhibitory Concentration ([10]; 1×10^6 cells/ml): 0.05 µg/mL | MIC ([10]; Corynebacterium, 1×10^8 cells/ml): 0.05 µg/mL (≈ 0.139 µM) | Minimum Inhibitory Concentration ([11]; 1×10^6 cells/ml): 0.05 µg/mL | MIC ([11]; Staphylococcus epidermidis, ATCC12228, 1×10^8 cells/ml): 0.05 µg/mL (≈ 0.139 µM) | Minimum Inhibitory Concentration (Bacillus cereus IFO 3001; 1×10^6 cells/ml): 0.10 µg/mL | MIC (Bacillus cereus IFO 3001; Bacillus cereus, IFO3001, 1×10^8 cells/ml): 0.1 µg/mL (≈ 0.277 µM) | MIC (Klebsiella pneumoniae; 1×10^6 cells/ml): 0.39 µg/mL (≈ 1.08 µM) | MIC (Klebsiella pneumoniae; 1×10^8 cells/ml): 0.39 µg/mL (≈ 1.08 µM) | MIC ([12]; E2, 1×10^6 cells/ml): 6.25 µg/mL (≈ 17.3 µM) | MIC ([12]; E2, 1×10^8 cells/ml): 6.25 µg/mL (≈ 17.3 µM) | MIC ([13]; B70, 1×10^6 cells/ml): 0.024 µg/mL (≈ 0.0666 µM) | MIC ([13]; B70, 1×10^8 cells/ml): 0.05 µg/mL (≈ 0.139 µM) | Minimum Inhibitory Concentration ([14]; 1×10^6 cells/ml): 0.10 µg/mL | MIC ([14]; Bacillus cereus, ATCC11778, 1×10^8 cells/ml): 0.1 µg/mL (≈ 0.277 µM) | MIC ([15]; IFO3762, 1×10^6 cells/ml): 0.2 µg/mL (≈ 0.555 µM) | MIC ([15]; IFO3762, 1×10^8 cells/ml): 0.39 µg/mL (≈ 1.08 µM) | MIC ([16]; ATCC10145, 1×10^6 cells/ml): 3.13 µg/mL (≈ 8.69 µM) | MIC ([16]; ATCC10145, 1×10^8 cells/ml): 3.13 µg/mL (≈ 8.69 µM) | Minimum Inhibitory Concentration ([17]; 1×10^6 cells/ml): 0.024 µg/mL | MIC ([17]; Bacillus pumilus, IFO3813, 1×10^8 cells/ml): 0.024 µg/mL (≈ 0.0666 µM) | MIC ([18]; WAL3218, 1×10^6 cells/ml): 0.78 µg/mL (≈ 2.16 µM) | MIC ([18]; WAL3218, 1×10^8 cells/ml): 1.56 µg/mL (≈ 4.33 µM) | Minimum Inhibitory Concentration ([19]; 1×10^6 cells/ml): 0.024 µg/mL | MIC ([19]; Bacillus subtilis, PCI219, 1×10^8 cells/ml): 0.024 µg/mL (≈ 0.0666 µM) | MIC (Shigella sonnei EW 33; EW33, 1×10^6 cells/ml): 0.2 µg/mL (≈ 0.555 µM) | MIC (Shigella sonnei EW 33; EW33, 1×10^8 cells/ml): 0.2 µg/mL (≈ 0.555 µM) | Minimum Inhibitory Concentration (Sarcina lutea PCI 1001; 1×10^6 cells/ml): 0.39 µg/mL | MIC (Sarcina lutea PCI 1001; Micrococcus luteus, PCI1001, 1×10^8 cells/ml): 0.39 µg/mL (≈ 1.08 µM) | MIC ([20]; FDA209, 1×10^6 cells/ml): ≤ 0.025 µg/mL | MIC ([20]; FDA209, 1×10^8 cells/ml): ≤ 0.05 µg/mL | Minimum Inhibitory Concentration ([21]; 1×10^6 cells/ml): 0.10 µg/mL | MIC ([21]; Staphylococcus aureus, 90124, 1×10^8 cells/ml): 0.1 µg/mL (≈ 0.277 µM) | Minimum Inhibitory Concentration ([22]; 1×10^6 cells/ml): 0.024 µg/mL | MIC ([22]; Bacillus, ATCC8241, 1×10^8 cells/ml): 0.024 µg/mL (≈ 0.0666 µM) | MIC ([23]; NO.286, 1×10^6 cells/ml): 0.05 µg/mL (≈ 0.139 µM) | MIC ([23]; NO.286, 1×10^8 cells/ml): 0.1 µg/mL (≈ 0.277 µM) | MIC ([24]; NO.80, 1×10^6 cells/ml): 0.024 µg/mL (≈ 0.0666 µM) | MIC ([24]; NO.80, 1×10^8 cells/ml): 0.05 µg/mL (≈ 0.139 µM) | Minimum Inhibitory Concentration ([25]; 1×10^6 cells/ml): 0.05 µg/mL | MIC ([25]; Staphylococcus aureus, 7447, 1×10^8 cells/ml): 0.05 µg/mL (≈ 0.139 µM)
